Laboratory results taken from article PMC4697807, “Novel Zn^2+ Modulated GPR39 Receptor Agonists Do Not Drive Acute Insulin Secretion in Rodents” (PLoS ONE, 2015).

Key:
DIO mice = experiment: IPGTT in DIO mice; assay type: in vivo, mouse; details: 100 mg/kg group, IP; group terminated
From the text: Six-week-old male C57BL/6J mice were purchased from CLEA (Tokyo, Japan). Fourteen-week-old and fifteen-week-old male DIO mice were purchase from Charles River Japan (Yokohama, Japan). They were used after at least one week acclimation period. C57BL/6J mice were allowed free access to a normal diet (CRF-1, Oriental Yeast, Tokyo, Japan). DIO mice were allowed free access to a high-fat diet with 60 kcal% fat (D12492, Research Diets, New Brunswick, NJ). They were kept under standard 12-h light/dark cycle. Animal experiments were approved by the Institutional Animal Care and Use Committee of Mitsubishi Tanabe Pharma Corporation.
Fifteen-week-old and twenty one-week-old DIO mice were used. The mice were fasted for 3 h and were randomly grouped based on the body weight. Five ml/kg of a solution of vehicle (10% DMF/18% Cremophore) or compounds were administered IP. Thirty min later, 1.0 g/10 ml/kg of glucose solution was administered IP. Blood samples were obtained from the tail vein at -30, 0, 15, 30, 60, and 120 min after glucose challenge. Plasma glucose and insulin were measured.
Statistical analysis was performed using SAS9.1.3 with student’s t-test or Dunnett’s test. All data were expressed as mean ± standard error of mean (SEM). P values of <0.05 were considered to be statistically significant.

[1] = Unbound plasma exposure in the IPGTT; assay type: in vivo, mouse; details: 0-30 min after glucose challenge; IP; lean mice
Method: Plasma protein binding of test compound was examined by an equilibrium dialysis method. The compound was mixed with blank mouse plasma to a concentration of 10 μM. The plasma sample and PBS were added to a sample chamber and a buffer chamber of an equilibrium dialysis device, respectively. The device was incubated for 4 h at 37°C in a CO2 incubator (oscillation: 180 rpm). After incubation, an aliquot in each chamber was collected. They were mixed with acetonitrile/methanol (50/50, v/v) and were centrifuged. The supernatants were analyzed by LC-MS/MS. Plasma unbound fraction (f) was calculated by Eq 2, f=Cf/Ct (2) where Cf and Ct represent the compound concentration in the buffer and sample chamber, respectively. […]
The unbound plasma concentrations were calculated by correcting the total plasma concentration derived from the LC/MS analysis by the free fraction, f u. The exposure in terms of the area under the unbound concentration-time curve in the interval 30–60 min after drug administration AUCu 30–60min, i.e. the interval 0–30 min after glucose challenge, was calculated using the linear up-log down trapezoidal method in the non compartmental module of Phoenix 6.2 (Pharsight). […] The ratio between C u,av and the EC 50 of the different in vitro potency assays was calculated for each compound and dose administered.

INS-1E cells = experiment: Glucose stimulated insulin secretion (GSIS) in INS-1E cells; assay type: cell-based, rat; details: for effect on GSIS: 1, 3 and 10 μM compound, 11.1 mM glucose; for unbound concentration yielding significant increases in GSIS (highest unbound concentration): free fraction calculated for 0.1% BSA
Method: INS-1E cells obtained from Dr. Wollheim (Univ. Geneva, Switzerland), were grown in Roswell Park Memorial Institute medium (RPMI) 1640 (Life technologies) supplemented with 5% of fetal bovine serum (Thermo Fischer Scientific, Inc. Waltham, MA). At 4 or 5 days before the assay, cells were plated in 24-well plates at 2 × 10^5 cells /well. At the day of the assay, cells were washed twice by Krebs-Ringer bicarbonate (KRB) buffer containing 0.1% BSA (pH7.4) and pre-incubated at 37°C for 30 min. The cells were washed twice again, and the buffer was replaced by KRB buffer containing 0, 1, 3 and 10 μM of compounds and 11.1 mM of glucose. In order to examine whether Zn^2+ has an enhancing effect on the activity of each compound, 20 μM of Zn^2+ was added in the incubation buffer as necessary. After cells were stimulated at 37°C for 1 h, the reaction was terminated by placing on ice. The buffer was collected from each well and precipitated (1000 rpm for 2 min at 25°C) in order to be separated from the cells. For each sample, concentration of insulin was measured using HTRF insulin kit (Cisbio).
The free fraction in the INS-1E assay, containing 0.1% w/w BSA, was calculated by using the equilibrium conditions of a single binding site model as in Eq 3.
The free fraction in mouse plasma corresponds to 1—CP/Ptot.

Compound | adverse findings (DIO mice) | average in vivo exposure (C u,av), unbound [1] | effect on GSIS (INS-1E cells; absence of Zn^2+) | effect on GSIS (INS-1E cells; presence of 20 μM Zn^2+) | unbound concentration yielding significant increases in GSIS (highest unbound concentration) (INS-1E cells)
N#Cc1ccc(OCCn2ccnc2)c(OCCn2ccnc2)c1 [AZ1395, 3,4-bis-(2-imidazol-1-ylethoxy)-benzonitrile] | severe hyperglycemia and associated morbidity/mortality in some animals | – | – | – | –
Cc1nc2c(C(=O)O)cnn2c(O)c1Cc1ccc(Cl)cc1 [AZ4237, 6-[(4-chlorophenyl)methyl]-7-hydroxy-5-methyl-pyrazolo[1,5-a]pyrimidine-3-carboxylic acid] | – | 19 µM | no effects | dose dependent GSIS increases | 7.2 µM
Cc1nc(-c2nc3c(c(=O)[nH]2)CN(C(=O)c2cccc(Cl)c2F)CC3)cs1 [AZ7914, 6-(3-chloro-2-fluoro-benzoyl)-2-(2-methylthiazol-4-yl)-3,5,7,8-tetrahydropyrido-[4,3-d]pyrimidin-4-one] | – | 29 µM | no effects | dose dependent GSIS increases | 8.4 µM
